Patent US20180086749A1, “INHIBITORS OF VIRUSES” (priority 2015, published 2018)
pEC50: −log10 of the molar value. Several values for one entry are separate records, joined by “and”; a condition that tells them apart may be missing. Identical values can stand only once. Like-named read-outs stand apart in the source and are kept apart here.

Key:
JEV = assay type: cell-based, Japanese Encephalitis virus
ZIKV/MR766 = test: Dose-response EC50, ZIKV/MR766; assay type: cell-based; conditions: Zika virus, Vero 76, Vero76, MOI 0.05
WNV/NY99 [1] = test: Dose-response EC50, WNV; assay type: cell-based; conditions: West Nile virus
ZIKV/PRVABC59 = test: Dose-response EC50, ZIKV/PRVABC59; assay type: cell-based; conditions: Zika virus, Vero 76, Vero76, MOI 0.05
in vitro = conditions: African green monkey, CC50 μM (Vero76)
WNV/NY99 [2] = assay type: cell-based, West Nile virus
[3] = tested on: IFN α/β in HEK 293T culture supernatant; assay type: cell-based, human; conditions: 18 hours
VEEV V3526-luc = test: microbe, parasite or virus in culture; assay type: cell-based, Venezuelan equine encephalitis virus; conditions: for pEC50: Venezuelan equine encephalitis virus
HIV-1 = HIV-1 viral infectivity assay (TZM-bl); assay type: cell-based; set-up: reduction in viral infectivity: dose or concentration left out as unconfirmed
[4] = tested on: innate immune response genes in HEK 293T cells; assay type: cell-based, human
VEEV TC-83 = assay type: cell-based, Venezuelan equine encephalitis virus
RSV Long = assay type: cell-based, Respiratory syncytial virus
[5] = tested on: HEK-Blue IFN-α/β reporter cells; test: HEK-Blue IFN-α/β cell reporter assay (SEAP); assay type: cell-based, human
VEEV (TC83 strain) = test: microbe, parasite or virus in culture; assay type: cell-based, Venezuelan equine encephalitis virus
Ebola virus-GFP = test: microbe, parasite or virus in culture; assay type: cell-based, Zaire ebolavirus
SARS-CoV = assay type: cell-based, Severe acute respiratory syndrome coronavirus
alphaviruses = assay type: cell-based; conditions: 5 μM
CHIKV (S27 strain) = CHIKV (S27 strain) CPE assay; assay type: cell-based, Chikungunya virus
[6] = tested on: cellular metabolites of HEK 293T cells; test: Metabolomics analysis of cellular metabolites; assay type: cell-based, human
HSV-2 = assay type: cell-based, Herpes simplex virus type-2
pVSV-luc = test: microbe, parasite or virus in culture; assay type: cell-based, Vesicular stomatitis virus; conditions: for pEC50: Vesicular stomatitis virus
YFV 17D = assay type: cell-based, Yellow Fever virus
Influenza virus A (H1N1) = assay type: cell-based
CHIKV S27 = assay type: cell-based, Chikungunya virus
[7] = tested on: VEEV TrD (Trinidad donkey); assay type: cell-based, Venezuelan equine encephalitis virus
[8] = ML416-treated / DMSO-treated, 18 hours
[9] = ML416 / DMSO, metabolite not confirmed by standard

Structure (SMILES): CN(C(=O)Cc1sccc1F)c1nc2c(s1)CCCC2 [ML416, 2-(3-fluorothiophen-2-yl)-N-methyl-N-(4,5,6,7-tetrahydro-1,3-benzothiazol-2-yl)acetamide]
- Log titer inhibition at 5 μM (JEV): −1.3 ± −0.43 Log
- Log reduction (JEV; 5 μM): ~1.3 Log
- pEC50 (ZIKV/MR766): 5.96
- pEC50 (WNV/NY99 [1]; Table 2): 5.62
- pEC50 (WNV/NY99 [1]; Vero 76, Vero76, MOI 0.01, Table 3): 5.62
- pEC50 (ZIKV/PRVABC59): 5.66
- CC50 (in vitro): > 50 µM
- Log titer inhibition at 5 μM (WNV/NY99 [2]): −2.05 ± −0.09 Log
- Log titer reduction (WNV/NY99 [2]; 5 μM): ~2 Log
- IFN α/β in cell culture supernatant [3]: no measurable quantity of IFNs was detected
- antiviral effect (VEEV V3526-luc): moderate effect
- effect of DHO addition on antiviral activity (VEEV V3526-luc): did not affect the antiviral activity
- pEC50 (VEEV V3526-luc): 6.77
- pEC50 (VEEV V3526-luc; BHK, read-out: EC50 V3526-luc): 5.95
- pEC50 (VEEV V3526-luc; HEK-293T, read-out: EC50 V3526-luc): 6.82
- pEC50 (VEEV V3526-luc; N2a, read-out: EC50 V3526-luc): < 4.30
- pEC50 (VEEV V3526-luc; NIH3T3, read-out: EC50 V3526-luc): < 4.30
- pEC50 (VEEV V3526-luc; Vero 76, read-out: EC50 V3526-luc): 6.77
- pEC50 (VEEV V3526-luc; in Mus musculus): < 4.30
- pEC50 (VEEV V3526-luc; read-out: EC50 V3526-luc): 6.31
- pEC50 (VEEV V3526-luc; read-out: EC50 values range): 6.17 to 6.82
- inhibition at 10 µM (HIV-1; Human immunodeficiency virus 1, TZM-bl, read-out: inhibition at 10 μM): 94%
- reduction in viral infectivity (HIV-1; TZM-bl reporter system, luciferase): 94%
- IFIH1 expression [4]: repressed
- IFIT1 gene upregulation [4]: more than 10 fold
- IFNB1 expression [4]: repressed
- IRF7 gene upregulation [4]: more than 10 fold
- MYD88 expression [4]: did not show any changes
- OAS1 expression [4]: did not show any changes
- OAS2 gene upregulation [4]: more than 10 fold
- RIG-I gene upregulation [4]: more than 10 fold
- Log titer inhibition at 5 μM (VEEV TC-83): −2.536 ± 0.018 Log
- Log titer inhibition at 5 μM (RSV Long): −2.27 ± 0.1 Log
- Log titer reduction (RSV Long; 5 μM): ~2 Log
- IFN α/β in cell culture supernatant ([5]; HEK 293T supernatant on HEK-Blue IFN-α/β cells): no measurable quantity of IFNs was detected
- SEAP activity ([5]; HEK-Blue IFN-α/β cells treated directly, FIG. 6): did not induce SEAP activity
- pEC50 (VEEV (TC83 strain); Venezuelan equine encephalitis virus): 6.46
- pEC50 (VEEV (TC83 strain); read-out: VEEV (TC83 strain) CPE Assay Potency mean EC50): 6.00 and 6.05
- pEC50 (Ebola virus-GFP): 6.59
- pEC50 (Ebola virus-GFP; Zaire ebolavirus, HeLa): 6.52
- antiviral activity (blank spaces of Table 2) (SARS-CoV): initial results have shown activity
- Log reduction in progeny virus titers (alphaviruses): greater than 4 Log
- pEC50 (CHIKV (S27 strain); Chikungunya virus): 6.54
- inhibition of CHIKV-induced cytopathic effect (CHIKV (S27 strain); in words): in the nanomolar range
- Fold Change: 3-((carboxymethyl)(methyl)amino)-3-oxopropanoic acid [6, 8]: 0.46 fold
- Fold Change: Citirc acid [6, 8]: 0.62 fold
- Fold Change: D-(−)-Lactic acid [6, 8]: 0.76 fold
- Fold Change: DL-Ornithine [6, 8]: 0.53 fold
- Fold Change: DL-Phenylalanine [6, 8]: 0.71 fold
- Fold Change: Fumaric Acid [6, 8]: 11 fold and 11.00 fold
- Fold Change: Glycine [6, 8]: 2.80 fold
- Fold Change: L-Asparagine [6, 8]: 0.41 fold
- Fold Change: L-Aspartic acid [6, 8]: 2.07 fold
- Fold Change: L-Glutamic acid [6, 8]: 0.09 fold
- Fold Change: L-Isoleucine [6, 8]: 0.45 fold
- Fold Change: L-Lysine [6, 8]: 2.76 fold
- Fold Change: L-Proline [6, 8]: 0.28 fold
- Fold Change: L-Threonine [6, 8]: 0.54 fold
- Fold Change: L-Tyrosine [6, 8]: 0.86 fold
- Fold Change: Lauric acid; Dodecanoic acid [6, 8]: 0.73 fold
- Fold Change: Oxalic acid [6, 8]: 0.66 fold
- Fold Change: Phenylalanine [6, 8]: 0.40 fold
- Fold Change: Pyruvic acid [6, 8]: 1.60 fold
- Fold Change: Tryptophan [6, 8]: 1.23 fold
- presence of free uridine ([6]; ML416-treated groups): not detected
- Fold Change: 1-phenylpropan-2-amine; Amphetamine; Fenopromin* [6, 9]: 0.80 fold
- Fold Change: 2-(Dimethylamino)ethyl neopentyl carbonate* [6, 9]: 1.49 fold
- Fold Change: 3,3-diethoxy-2-hydroxypropyl dihydrogen phosphate* [6, 9]: 0.58 fold
- Fold Change: 3-Glycerophosphate* [6, 9]: 1.71 fold
- Fold Change: 3-hydroxy-2-methylpropanoic acid; 3-Hydroxyisobutyric acid* [6, 9]: 0.70 fold
- Fold Change: Adenine* [6, 9]: 1.37 fold
- Fold Change: Dihydromuconic acid; trans-3-Hexenedioic acid* [6, 9]: 0.23 fold
- Fold Change: Ethylcholine mustard* [6, 9]: 0.49 fold
- Fold Change: L-Norvaline* [6, 9]: 0.52 fold
- Fold Change: Niacinamine* [6, 9]: 0.74 fold
- Fold Change: O-phosphorylethanolamine; 2-aminoethyl dihydrogen phosphate* [6, 9]: 1.35 fold
- Fold Change: Ribitol* [6, 9]: 0.66 fold
- Fold Change: Scyllo-Inositol* [6, 9]: 1.23 fold
- Fold Change: meso-Erythritol; Erythritol* [6, 9]: 0.69 fold
- presence of dihydroorotic acid (DHO) ([6]; ML416 vs mock-treated): found only in ML416-treated groups
- presence of orotic acid ([6]; ML416 vs mock-treated): found only in ML416-treated groups
- CC50 (Vero 76 cells): > 50 µM
- Selective Index 50 (SI50) (Vero 76 cells): 106.9
- concentration up to which no apparent cytotoxicity (Vero 76 cells; African green monkey): up to 12.5 μM
- cytotoxicity (Vero 76 cells; African green monkey): > 40 µM
- cytotoxicity in Vero 76 cells (Vero 76 cells; African green monkey): > 50 µM
- Log titer inhibition at 5 μM (HSV-2): 0.01 ± 0.43 Log
- antiviral effect (pVSV-luc): moderate effect
- pEC50 (pVSV-luc): 6.72
- pEC50 (pVSV-luc; BHK, read-out: EC50 pVSV-Gp): 5.08
- pEC50 (pVSV-luc; HEK-293T, read-out: EC50 pVSV-Gp): 6.77
- pEC50 (pVSV-luc; N2a, read-out: EC50 pVSV-Gp): < 4.30
- pEC50 (pVSV-luc; NIH3T3, read-out: EC50 pVSV-Gp): < 4.30
- pEC50 (pVSV-luc; in Mus musculus): < 4.30
- pEC50 (pVSV-luc; read-out: EC50 pVSV-Gp): 5.42
- pEC50 (pVSV-luc; read-out: EC50 values range): 6.17 to 6.82
- Log titer inhibition at 5 μM (YFV 17D): −2.32 Log
- Log titer reduction (YFV 17D; 5 μM): ~2 Log
- Log titer inhibition at 5 μM (Influenza virus A (H1N1)): −3.03 Log
- Log reduction in progeny virus titers (Influenza virus A (H1N1); 5 μM): greater than 3 Log
- reduction of CHIKV viral titer in vitro (CHIKV S27): 4 log
- Log titer inhibition at 5 μM (CHIKV S27; 5 μM): −4.024 Log
- Log titer inhibition at 5 μM [7]: −4.768 Log
